The values that follow come from paper PMC7092418 (Genes and Environment, 2020).

One data set relates to S. typhimurium YG9028. Particulars: Salmonella typhimurium.
The next data set has as its system rat. Particulars: in vivo; cited from earlier work.

Molecules are shown by their SMILES.

Compound `COS(C)(=O)=O` [MMS, Methylmethane sulfonate] gave a Specific mutagenicity in the data set with S. typhimurium YG9028 of 0.205 revertants/plate/nmole.

For the compound `[N-]=[N+]=[N-].[Na+]` [sodium azide], in the data set on rat, the Carcinogenicity entry is on record as “non-carcinogenic”.
